Where a SMILES comes first, the peptide text is derived from it. [ ]: non-standard residue; d: D form. MeBmt = C/C=C/C[C@@H](C)[C@@H](O)[C@H](NC)C(=O)O; NMeY = CN[C@@H](Cc1ccc(O)cc1)C(=O)O; NMeF = CN[C@@H](Cc1ccccc1)C(=O)O; NMeT = CN[C@H](C(=O)O)[C@@H](C)O; NMeL = CN[C@@H](CC(C)C)C(=O)O; dNMeV = CN[C@@H](C(=O)O)C(C)C; NMeNva = CCC[C@H](NC)C(=O)O; NMeV = CN[C@H](C(=O)O)C(C)C; NMeA = CN[C@@H](C)C(=O)O; dNMeA = CN[C@H](C)C(=O)O; Abu = CC[C@H](N)C(=O)O; Sar = CNCC(=O)O
Tests used:
HeLa-CyclophilinA cells = experiment: Biosensor cell permeability assay (cyclophilin destabilizing mutant), HeLa-CyclophilinA cells; type: cell-based; conditions: 72 hrs
Description: Cell permeability of compounds can be determined using the following protocol.
This protocol utilizes a modified FKBP or cyclophilin destabilizing mutant to determine the bioactivity of FKBP binding compounds or cyclophilin binding compounds in whole cell assay.
DMEM, DMEM without Phenol Red, 10% FBS, 1× Sodium Pyruvate, 1× Glutamax. Add 125 μl of media with compound per well.
Plate HeLa-FKBP12 cells (for FKBP binding compounds) or HeLa-CyclophilinA cells (for cyclophilin binding compounds) and seed overnight at 5 k/well (approximately ˜18 hrs.). Using a multi-channel pipet, take out the old media and add ˜125 ul of new media with compounds. Compounds are diluted using DMEM without Phenol Red, 10% FBS, 1× Sodium Pyruvate, 1× Glutamax. Add 125 μL of media with compound per well. Cells are treated with compounds at concentration: 30, 10, 3.33, 1.11, 0.37, 0.12, 0.04 and 0.013 uM. Time points are taken at 72 hrs and plate read using plate reader with excitation/emission: 575/620.
Cell binding/permeability is calculated in fold-change (Total RFU of treated samples/total RFU of DMSO treated samples or total RFU above background (Total RFU minus total RFU of DMSO treated samples).

Cyclophilin A = target: T1, Cyclophilin A (Homo sapiens, UniProt P62937); experiment: AlphaLISA inhibition of binding of biotinylated Cyclosporin A to FLAG tagged Cyclophilin A; conditions: for % signal: AlphaLISA signal; for % signal / % inhibition of CsA binding to Cyclophilin A: test concentration not given; for IC50: read-out: IC50 value of CsA binding to Cyclophilin A
T1 construct: made in house
Procedure, shortened: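 Inhibition of biotin-CsA binding to FLAG-tagged Cyclophilin A read by AlphaLISA (ex 680, em 615 nm). Working stocks were 6 nM biotinylated CsA and 25 nM FLAG-CypA; beads and compound were combined first for 30 min, then protein added for 60 min, all at room temperature in the dark, with DMSO and cyclosporin A controls.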

T1 sequence (P62937 whole entry, species assumed): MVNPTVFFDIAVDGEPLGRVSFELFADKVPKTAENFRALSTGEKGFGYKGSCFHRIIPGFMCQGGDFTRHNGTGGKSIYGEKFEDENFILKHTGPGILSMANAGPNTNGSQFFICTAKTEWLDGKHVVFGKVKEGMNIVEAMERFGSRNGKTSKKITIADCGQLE

Row | Structure (SMILES) | IC50 (HeLa-CyclophilinA cells) | % signal (Cyclophilin A) | IC50 (Cyclophilin A) | % inhibition of CsA binding to Cyclophilin A (Cyclophilin A)
1 | C/C=C/C[C@@H](C)[C@@H](O)[C@H]1C(=O)N[C@@H](CC)C(=O)N(C)CC(=O)N(C)[C@@H]([C@@H](C)CC)C(=O)N[C@@H](C(C)C)C(=O)N(C)[C@@H](CC(C)C)C(=O)N[C@@H](C)C(=O)N[C@H](C)C(=O)N(C)[C@@H](CC(C)C)C(=O)N(C)[C@@H](CC(C)C)C(=O)N(C)[C@@H](C(C)C)C(=O)N1C [Compound C33] | < 3000 nM | −0.08% | < 2000 nM | 100.08%
2 | C/C=C/C[C@@H](C)[C@@H](O)[C@H]1C(=O)N[C@@H](CC)C(=O)N(C)CC(=O)N(C)[C@@H](C)C(=O)N[C@@H](C(C)C)C(=O)N(C)[C@@H](CC(C)C)C(=O)N[C@@H](C)C(=O)N[C@H](C)C(=O)N(C)[C@@H](CC(C)C)C(=O)N(C)[C@@H](CC(C)C)C(=O)N(C)[C@@H](C(C)C)C(=O)N1C [Compound C34] | < 3000 nM | −0.01% | < 2000 nM | 100.01%
3 | C/C=C/C[C@@H](C)[C@@H](O)[C@H]1C(=O)N[C@@H](CC)C(=O)N(C)CC(=O)N(C)[C@H](C)C(=O)N[C@@H](C(C)C)C(=O)N(C)[C@@H](CC(C)C)C(=O)N[C@@H](C)C(=O)N[C@H](C)C(=O)N(C)[C@@H](CC(C)C)C(=O)N(C)[C@@H](CC(C)C)C(=O)N(C)[C@@H](C(C)C)C(=O)N1C [Compound C35] | > 3000 nM | 0.89% | < 2000 nM | 99.11%
4 | C/C=C/C[C@@H](C)[C@@H](O)[C@H]1C(=O)N[C@@H](CC)C(=O)N(C)CC(=O)N(C)CC(=O)N[C@@H](C(C)C)C(=O)N(C)[C@@H](CC(C)C)C(=O)N[C@@H](C)C(=O)N[C@H](C)C(=O)N(C)[C@@H](CC(C)C)C(=O)N(C)[C@@H](CC(C)C)C(=O)N(C)[C@@H](C(C)C)C(=O)N1C [Compound C37] | > 3000 nM | 1.56% | < 2000 nM | 98.44%
5 | C/C=C/C[C@@H](C)[C@@H](O)[C@H]1C(=O)N[C@@H](CC)C(=O)N(C)CC(=O)N(C)[C@@H]([C@@H](C)O)C(=O)N[C@@H](C(C)C)C(=O)N(C)[C@@H](CC(C)C)C(=O)N[C@@H](C)C(=O)N[C@H](C)C(=O)N(C)[C@@H](CC(C)C)C(=O)N(C)[C@@H](CC(C)C)C(=O)N(C)[C@@H](C(C)C)C(=O)N1C [Compound C38] | < 3000 nM | 1.57% | < 2000 nM | 98.43%
6 | C/C=C/C[C@@H](C)[C@@H](O)[C@H]1C(=O)N[C@@H](CC)C(=O)N(C)CC(=O)N(C)[C@@H](Cc2ccc(O)cc2)C(=O)N[C@@H](C(C)C)C(=O)N(C)[C@@H](CC(C)C)C(=O)N[C@@H](C)C(=O)N[C@H](C)C(=O)N(C)[C@@H](CC(C)C)C(=O)N(C)[C@@H](CC(C)C)C(=O)N(C)[C@@H](C(C)C)C(=O)N1C [Compound C39] | < 3000 nM | 3.78% | < 2000 nM | 96.22%
7 | C/C=C/C[C@@H](C)[C@@H](O)[C@H]1C(=O)N[C@@H](CC)C(=O)N(C)CC(=O)N(C)[C@@H](C)C(=O)N[C@@H](C(C)C)C(=O)N(C)[C@@H](CC(C)C)C(=O)N[C@@H](CC)C(=O)N[C@H](C)C(=O)N(C)[C@@H](CC(C)C)C(=O)N(C)[C@@H](CC(C)C)C(=O)N(C)[C@@H](C(C)C)C(=O)N1C [Compound C94] (cyclo([Abu][Sar][NMeA]V[NMeL][Abu][dA][NMeL][NMeL][NMeV][MeBmt])) | – | 3.71% | < 2000 nM | 96.29%
8 | C/C=C/C[C@@H](C)[C@@H](O)[C@H]1C(=O)N[C@@H](CC)C(=O)N(C)CC(=O)N(C)[C@H](C)C(=O)N[C@@H](C(C)C)C(=O)N(C)[C@@H](CC(C)C)C(=O)N[C@@H](CC)C(=O)N[C@H](C)C(=O)N(C)[C@@H](CC(C)C)C(=O)N(C)[C@@H](CC(C)C)C(=O)N(C)[C@@H](C(C)C)C(=O)N1C [Compound C95] (cyclo([Abu][Sar][dNMeA]V[NMeL][Abu][dA][NMeL][NMeL][NMeV][MeBmt])) | – | 6.90% | < 2000 nM | 93.10%
9 | C/C=C/C[C@@H](C)[C@@H](O)[C@H]1C(=O)N[C@@H](CC)C(=O)N(C)CC(=O)N(C)[C@@H](Cc2ccccc2)C(=O)N[C@@H](C(C)C)C(=O)N(C)[C@@H](CC(C)C)C(=O)N[C@@H](CC)C(=O)N[C@H](C)C(=O)N(C)[C@@H](CC(C)C)C(=O)N(C)[C@@H](CC(C)C)C(=O)N(C)[C@@H](C(C)C)C(=O)N1C [Compound C96] (cyclo([Abu][Sar][NMeF]V[NMeL][Abu][dA][NMeL][NMeL][NMeV][MeBmt])) | – | 5.00% | < 2000 nM | 95.00%
10 | C/C=C/C[C@@H](C)[C@@H](O)[C@H]1C(=O)N[C@@H](CC)C(=O)N(C)CC(=O)N(C)CC(=O)N[C@@H](C(C)C)C(=O)N(C)[C@@H](CC(C)C)C(=O)N[C@@H](CC)C(=O)N[C@H](C)C(=O)N(C)[C@@H](CC(C)C)C(=O)N(C)[C@@H](CC(C)C)C(=O)N(C)[C@@H](C(C)C)C(=O)N1C [Compound C97] (cyclo([Abu][Sar][Sar]V[NMeL][Abu][dA][NMeL][NMeL][NMeV][MeBmt])) | – | 6.42% | < 2000 nM | 93.58%
11 | C/C=C/C[C@@H](C)[C@@H](O)[C@H]1C(=O)N[C@@H](CC)C(=O)N(C)CC(=O)N(C)[C@@H](CC(C)C)C(=O)N[C@@H](C(C)C)C(=O)N(C)[C@@H](CC(C)C)C(=O)N[C@@H](CC)C(=O)N[C@H](C)C(=O)N(C)[C@@H](CC(C)C)C(=O)N(C)[C@@H](CC(C)C)C(=O)N(C)[C@@H](C(C)C)C(=O)N1C [Compound C98] | – | 4.70% | < 2000 nM | 95.30%
12 | C/C=C/C[C@@H](C)[C@@H](O)[C@H]1C(=O)N[C@@H](CC)C(=O)N(C)CC(=O)N(C)[C@@H]([C@@H](C)O)C(=O)N[C@@H](C(C)C)C(=O)N(C)[C@@H](CC(C)C)C(=O)N[C@@H](CC)C(=O)N[C@H](C)C(=O)N(C)[C@@H](CC(C)C)C(=O)N(C)[C@@H](CC(C)C)C(=O)N(C)[C@@H](C(C)C)C(=O)N1C [Compound C99] (cyclo([Abu][Sar][NMeT]V[NMeL][Abu][dA][NMeL][NMeL][NMeV][MeBmt])) | – | 2.59% | < 2000 nM | 97.41%
13 | C/C=C/C[C@@H](C)[C@@H](O)[C@H]1C(=O)N[C@@H](CC)C(=O)N(C)CC(=O)N(C)[C@@H](Cc2ccc(O)cc2)C(=O)N[C@@H](C(C)C)C(=O)N(C)[C@@H](CC(C)C)C(=O)N[C@@H](CC)C(=O)N[C@H](C)C(=O)N(C)[C@@H](CC(C)C)C(=O)N(C)[C@@H](CC(C)C)C(=O)N(C)[C@@H](C(C)C)C(=O)N1C [Compound C100] (cyclo([Abu][Sar][NMeY]V[NMeL][Abu][dA][NMeL][NMeL][NMeV][MeBmt])) | – | 4.28% | < 2000 nM | –
14 | C/C=C/C[C@@H](C)[C@@H](O)[C@H]1C(=O)N[C@@H](CC)C(=O)N(C)CC(=O)N(C)[C@@H](C(C)C)C(=O)N[C@@H](C(C)C)C(=O)N(C)[C@@H](CC(C)C)C(=O)N[C@@H](CC)C(=O)N[C@H](C)C(=O)N(C)[C@@H](CC(C)C)C(=O)N(C)[C@@H](CC(C)C)C(=O)N(C)[C@@H](C(C)C)C(=O)N1C [Compound C101] (cyclo([Abu][Sar][NMeV]V[NMeL][Abu][dA][NMeL][NMeL][NMeV][MeBmt])) | – | 0.15% | < 2000 nM | 99.85%
15 | C/C=C/C[C@@H](C)[C@@H](O)[C@H]1C(=O)N[C@@H](CC)C(=O)N(C)CC(=O)N(C)[C@@H](CCC)C(=O)N[C@@H](C(C)C)C(=O)N(C)[C@@H](CC(C)C)C(=O)N[C@@H](CC)C(=O)N[C@H](C)C(=O)N(C)[C@@H](CC(C)C)C(=O)N(C)[C@@H](CC(C)C)C(=O)N(C)[C@@H](C(C)C)C(=O)N1C [Compound C102] (cyclo([Abu][Sar][NMeNva]V[NMeL][Abu][dA][NMeL][NMeL][NMeV][MeBmt])) | – | 0.70% | < 2000 nM | –
16 | C/C=C/C[C@@H](C)[C@@H](O)[C@H]1C(=O)N[C@@H](CC)C(=O)N(C)CC(=O)N(C)[C@H](C(C)C)C(=O)N[C@@H](C(C)C)C(=O)N(C)[C@@H](CC(C)C)C(=O)N[C@@H](CC)C(=O)N[C@H](C)C(=O)N(C)[C@@H](CC(C)C)C(=O)N(C)[C@@H](CC(C)C)C(=O)N(C)[C@@H](C(C)C)C(=O)N1C [Compound C103] (cyclo([Abu][Sar][dNMeV]V[NMeL][Abu][dA][NMeL][NMeL][NMeV][MeBmt])) | – | 13.65% | < 2000 nM | 86.35%
17 | C/C=C/C[C@@H](C)[C@@H](O)[C@H]1C(=O)N[C@@H](CC)C(=O)N(C)CC(=O)N(C)[C@@H](CCCC)C(=O)N[C@@H](C(C)C)C(=O)N(C)[C@@H](CC(C)C)C(=O)N[C@@H](CC)C(=O)N[C@H](C)C(=O)N(C)[C@@H](CC(C)C)C(=O)N(C)[C@@H](CC(C)C)C(=O)N(C)[C@@H](C(C)C)C(=O)N1C [Compound C104] | – | 0.99% | < 2000 nM | 99.01%
